Measurements: ChEMBL document CHEMBL5608173, “Discovery of novel natural-product-derived mutant isocitrate dehydrogenases 1 inhibitors: Structure-based virtual screening, biological evaluation and structure-activity relationship study” (Eur J Med Chem, 2024)
The source made the active and inactive calls. The calls are words filed in the database; no cut-off is given here.

Legend:
[1] = biological target: Isocitrate dehydrogenase [NADP] cytoplasmic (Homo sapiens, UniProt O75874); assay: Inhibition of recombinant human wildtype IDH1 extracted from Escherichia coli BL21 (DE3) cells using alpha-ketoglutarate as substrate incubated for 60 mins in presence of NADPH by absorbance based assay
[2] = test system: HT-1080; assay: Cell cycle arrest in human HT-1080 cells assessed as G2 phase cells at 2 uM incubated for 24 hrs by PI staining based flow cytometric analysis (reference value: 23.6 %); assay type: functional
[3] = test system: Isocitrate dehydrogenase [NADP] cytoplasmic (Homo sapiens), O75874 [R132H]; assay: Inhibition of recombinant human IDH1 R132H mutant extracted from Escherichia coli BL21 (DE3) cells using alpha-ketoglutarate as substrate at 0.2 uM incubated for 60 mins in presence of NADPH by absorbance based assay relative to control
[4] = biological target: T1, Isocitrate dehydrogenase [NADP] cytoplasmic (Homo sapiens, UniProt O75874, R132H); assay: Inhibition of recombinant human IDH1 R132H mutant extracted from Escherichia coli BL21 (DE3) cells using alpha-ketoglutarate as substrate incubated for 60 mins in presence of NADPH by absorbance based assay
[5] = biological target: Isocitrate dehydrogenase [NADP] cytoplasmic (Homo sapiens, UniProt O75874, R132C); assay: Inhibition of IDH1 R132C mutant in human HT-1080 cells assessed as reduction in 2-HG level incubated for 48 hrs in presence of NAD+ by resazurin fluorescence dye based Sigma MAK320-1 assay kit analysis; assay type: cell-based
[6] = biological target: T1, Isocitrate dehydrogenase [NADP] cytoplasmic; assay: Inhibition of IDH1 R132H mutant in human U-87 MG cells assessed as reduction in 2-HG level incubated for 48 hrs in presence of NAD+ by resazurin fluorescence dye based Sigma MAK320-1 assay kit analysis; assay type: cell-based
[7] = test system: HT-1080; assay: Antiproliferative activity against human HT-1080 cells harboring IDH1 R132C mutant assessed as reduction in cell viability at 10 uM incubated for 72 hrs by MTT assay; assay type: functional, cell-based
[8] = test system: L02; assay: Cytotoxicity against human L02 cells assessed as reduction in cell viability at 0.5 to 2 uM; assay type: toxicity, cell-based; conditions: l02, 2 µM, dose 0.5-2 µM
[9] = test system: BEAS-2B; assay: Cytotoxicity against human BEAS-2B cells assessed as reduction in cell viability at 0.5 to 2 uM; assay type: toxicity, cell-based; conditions: dose 0.5-2 µM
[10] = test system: U-87 MG; assay: Antiproliferative activity against human U-87 MG cells assessed as reduction in cell viability incubated for 72 hrs by MTT assay; assay type: functional, U-87MG ATCC
[11] = test system: HT-1080; assay: Induction of apoptosis in human HT-1080 cells assessed as viable cells at 8 uM incubated for 48 hrs by Annexin V-FITC/PI staining based flow cytometric analysis (reference value: 96.07 %); assay type: functional; conditions: read-out: Activity
[12] = test system: HT-1080; assay: Induction of apoptosis in human HT-1080 cells assessed as late apoptotic cells at 8 uM incubated for 48 hrs by Annexin V-FITC/PI staining based flow cytometric analysis (reference value: 1.15 %); assay type: functional
[13] = test system: HT-1080; assay: Induction of apoptosis in human HT-1080 cells assessed as necrotic cells at 8 uM incubated for 48 hrs by Annexin V-FITC/PI staining based flow cytometric analysis (reference value: 0.45 %); assay type: functional
[14] = test system: HT-1080; assay: Induction of apoptosis in human HT-1080 cells assessed as early apoptotic cells at 6 uM incubated for 12 hrs by Annexin V-FITC/PI staining based flow cytometric analysis (reference value: 2.36 %); assay type: functional
[15] = test system: HT-1080; assay: Induction of apoptosis in human HT-1080 cells assessed as late apoptotic cells at 6 uM incubated for 12 hrs by Annexin V-FITC/PI staining based flow cytometric analysis (reference value: 0.60 %); assay type: functional
[16] = test system: HT-1080; assay: Induction of apoptosis in human HT-1080 cells assessed as early apoptotic cells at 6 uM incubated for 24 hrs by Annexin V-FITC/PI staining based flow cytometric analysis (reference value: 2.36 %); assay type: functional
[17] = test system: HT-1080; assay: Induction of apoptosis in human HT-1080 cells assessed as late apoptotic cells at 6 uM incubated for 24 hrs by Annexin V-FITC/PI staining based flow cytometric analysis (reference value: 0.60 %); assay type: functional
[18] = test system: HT-1080; assay: Induction of apoptosis in human HT-1080 cells assessed as necrotic cells at 6 uM incubated for 24 hrs by Annexin V-FITC/PI staining based flow cytometric analysis (reference value: 0.38 %); assay type: functional
[19] = test system: HT-1080; assay: Induction of apoptosis in human HT-1080 cells assessed as early apoptotic cells at 6 uM incubated for 48 hrs by Annexin V-FITC/PI staining based flow cytometric analysis (reference value: 2.36 %); assay type: functional
[20] = test system: HT-1080; assay: Cell cycle arrest in human HT-1080 cells assessed as G1 phase cells at 2 uM incubated for 24 hrs by PI staining based flow cytometric analysis (reference value: 58.1 %); assay type: functional
[21] = test system: HT-1080; assay: Cell cycle arrest in human HT-1080 cells assessed as S phase cells at 2 uM incubated for 24 hrs by PI staining based flow cytometric analysis (reference value: 18.3 %); assay type: functional
[22] = test system: HT-1080; assay: Cell cycle arrest in human HT-1080 cells assessed as G1 phase cells at 4 uM incubated for 24 hrs by PI staining based flow cytometric analysis (reference value: 58.1 %); assay type: functional
[23] = test system: HT-1080; assay: Cell cycle arrest in human HT-1080 cells assessed as S phase cells at 4 uM incubated for 24 hrs by PI staining based flow cytometric analysis (reference value: 18.3 %); assay type: functional
[24] = test system: HT-1080; assay: Cell cycle arrest in human HT-1080 cells assessed as G2 phase cells at 4 uM incubated for 24 hrs by PI staining based flow cytometric analysis (reference value: 23.6 %); assay type: functional
[25] = test system: HT-1080; assay: Cell cycle arrest in human HT-1080 cells assessed as G1 phase cells at 8 uM incubated for 24 hrs by PI staining based flow cytometric analysis (reference value: 58.1 %); assay type: functional
[26] = Toxicity in Sprague-Dawley rat assessed as observable clinical signs at 5 mg/kg, po measured after 24 hrs; assay type: organism-based; conditions: in vivo
[27] = Half-life in Sprague-Dawley rat at 0.5 mg/kg, iv measured after 24 hrs by LC-MS/MS analysis; assay type: ADME, organism-based; conditions: in vivo
[28] = Tmax in Sprague-Dawley rat at 0.5 mg/kg, iv measured after 24 hrs by LC-MS/MS analysis; assay type: ADME, organism-based; conditions: in vivo
[29] = Cmax in Sprague-Dawley rat at 0.5 mg/kg, iv measured after 24 hrs by LC-MS/MS analysis; assay type: ADME, organism-based; conditions: in vivo
[30] = AUC (0 to t) in Sprague-Dawley rat at 0.5 mg/kg, iv measured after 24 hrs by LC-MS/MS analysis; assay type: ADME, organism-based; conditions: in vivo
[31] = Half-life in Sprague-Dawley rat at 5 mg/kg, po measured after 24 hrs by LC-MS/MS analysis; assay type: ADME, organism-based; conditions: in vivo
[32] = Tmax in Sprague-Dawley rat at 5 mg/kg, po measured after 24 hrs by LC-MS/MS analysis; assay type: ADME, organism-based; conditions: in vivo
[33] = Cmax in Sprague-Dawley rat at 5 mg/kg, po measured after 24 hrs by LC-MS/MS analysis; assay type: ADME, organism-based; conditions: in vivo
[34] = test system: HT-1080; assay: Antitumor activity against human HT-1080 cells xenografted in female nude mouse assessed as suppression of tumor growth at 40 mg/kg, ip administered every 2 days for 8 days; assay type: functional, organism-based; conditions: time 8.0 day
[35] = Toxicity in female nude mouse xenografted with human HT-1080 cells assessed as body weight loss at 40 mg/kg, ip administered every 2 days for 8 days; assay type: organism-based; conditions: in vivo, 192 h, time 8 day

T1 sequence (O75874 2-414 R132H limits assumed): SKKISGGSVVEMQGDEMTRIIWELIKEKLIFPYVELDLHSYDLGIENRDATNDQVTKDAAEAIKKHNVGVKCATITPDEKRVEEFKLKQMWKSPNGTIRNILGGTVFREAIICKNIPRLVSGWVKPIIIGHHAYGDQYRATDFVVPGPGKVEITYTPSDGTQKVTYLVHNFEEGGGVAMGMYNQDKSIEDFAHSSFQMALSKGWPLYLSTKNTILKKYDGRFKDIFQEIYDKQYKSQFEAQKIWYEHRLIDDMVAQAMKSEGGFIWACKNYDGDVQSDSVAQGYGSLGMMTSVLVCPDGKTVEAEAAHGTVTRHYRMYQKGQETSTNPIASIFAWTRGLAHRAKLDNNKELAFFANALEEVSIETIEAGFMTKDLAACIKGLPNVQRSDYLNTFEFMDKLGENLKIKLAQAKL
Sequence of Isocitrate dehydrogenase [NADP] cytoplasmic (Homo sapiens, UniProt O75874, R132C) (O75874 2-414 R132C limits assumed): as the sequence (O75874 2-414 R132H limits assumed) above, with H131C counted along it
Sequence of Isocitrate dehydrogenase [NADP] cytoplasmic (Homo sapiens, UniProt O75874) (O75874 whole entry): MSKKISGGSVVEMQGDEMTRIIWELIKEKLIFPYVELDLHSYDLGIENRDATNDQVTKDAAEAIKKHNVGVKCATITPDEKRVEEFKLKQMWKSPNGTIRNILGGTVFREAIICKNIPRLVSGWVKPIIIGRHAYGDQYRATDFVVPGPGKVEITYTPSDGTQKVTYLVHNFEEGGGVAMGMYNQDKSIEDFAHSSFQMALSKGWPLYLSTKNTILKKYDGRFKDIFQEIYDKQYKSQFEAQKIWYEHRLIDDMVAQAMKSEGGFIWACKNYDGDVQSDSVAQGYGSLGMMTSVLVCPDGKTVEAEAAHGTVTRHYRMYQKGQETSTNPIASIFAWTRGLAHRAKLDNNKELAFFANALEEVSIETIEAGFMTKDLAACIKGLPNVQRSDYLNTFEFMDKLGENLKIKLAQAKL
Sequence of Isocitrate dehydrogenase [NADP] cytoplasmic (Homo sapiens), O75874 [R132H] (O75874 whole entry R132H): as the sequence (O75874 whole entry) above, with R132H counted along it

Which IC50 [1] does the source give for `COc1cc(O)c(-c2cc(-c3ccc(O)cc3)nc(N3CCNCC3)n2)cc1CC=C(C)C` here?
The IC50 was > 20000 nM.

And the Activity [2]?
Its Activity is 21.9%.

What about the inhibition [3] of the same compound?
Its inhibition is 75.4%.

What about the IC50 [4] of the same compound?
The IC50 was 124 nM.

What about the EC50 [5] of the same compound?
Its EC50 is 84 nM.

What about the EC50 [6] of the same compound?
Its EC50 is 182 nM.

What about the Activity [7] of the same compound?
Its Activity is “Active”.

What about the Activity [8] of the same compound?
The Activity was “Non-Toxic”.

And the Activity [9]?
Its Activity is “Non-Toxic”.

And the GC50 [10]?
Its GC50 is 6910 nM.

What about the viability at 8 µM [11] of the same compound?
The viability at 8 µM was 69.6%.

And the Activity [12]?
Its Activity is 17.93%.

And the Activity [13]?
Its Activity is 4.66%.

And the Activity [14]?
The Activity was 0.62%.

What about the Activity [15] of the same compound?
Its Activity is 2.92%.

What about the Activity [16] of the same compound?
Its Activity is 3.25%.

What about the Activity [17] of the same compound?
The Activity was 5.26%.

And the Activity [18]?
Its Activity is 4.16%.

What about the Activity [19] of the same compound?
Its Activity is 11.25%.

And the Activity [20]?
Its Activity is 55.7%.

What about the Activity [21] of the same compound?
The Activity was 22.4%.

And the Activity [22]?
Its Activity is 56.1%.

And the Activity [23]?
The Activity was 22.9%.

What about the Activity [24] of the same compound?
The Activity was 21%.

And the Activity [25]?
Its Activity is 51.8%.

And the Activity [26]?
Its Activity is “Non-Toxic”.

What about the half-life [27] of the same compound?
Its half-life is 87.6 min.

And the Tmax [28]?
Its Tmax is 1.8 min.

What about the Cmax [29] of the same compound?
The Cmax was 766 ng/mL.

And the AUC(0-t) at 24 h [30]?
The AUC(0-t) at 24 h was 236 ng·h/mL.

What about the half-life [31] of the same compound?
Its half-life is 128 min.

And the Tmax [32]?
Its Tmax is 11.4 min.

And the Cmax [33]?
Its Cmax is 478 ng/mL.

What about the Activity [34] of the same compound?
The Activity was “Active”.

What about the Activity [35] of the same compound?
Its Activity is “Non-Toxic”.
